How the values were obtained:
barnyardgrass = assay: Test C preemergence; format: in vivo, Echinochloa crus-galli; conditions: for Barnyardgrass plant response rating: preemergence; for Plant response rating, Barnyardgrass: Preemergence, 31 g ai/ha, scale 0 to 100, 0 no effect, 100 complete control
In short: (§1)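 Injury was assessed visually against controls 13 to 15 days after application, with 0 meaning no effect and 100 full control; missing entries are shown as a dash. Preemergence sprays hit seeded loam–sand soil, postemergence sprays hit 1- to 4-leaf plants.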

large (Lg) crabgrass = assay: Test C preemergence; format: in vivo, Digitaria sanguinalis; conditions: for Crabgrass, Large plant response rating: preemergence; for Plant response rating, Crabgrass, Large: Preemergence, 31 g ai/ha, scale 0 to 100, 0 no effect, 100 complete control
In short: as §1

ragweed = assay: Test A postemergence; format: in vivo, Ambrosia elatior; conditions: 0 to 100 scale where 0 is no effect and 100 is complete control
In short: (§2)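 Injury scores run from 0, no effect, to 100, complete control, judged by eye against untreated plants roughly 10 days after treatment. Chemicals carried a surfactant in a non-phytotoxic solvent and went onto loam–sand soil preemergence or onto one- to two-leaf seedlings postemergence.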

soybean = assay: Test C preemergence; format: in vivo, Glycine max; conditions: for Soybean plant response rating: preemergence; for Plant response rating, Soybean: Preemergence, 31 g ai/ha, scale 0 to 100, 0 no effect, 100 complete control
In short: as §1

kochia = assay: Test A postemergence; format: in vivo, Kochia scoparia; conditions: 0 to 100 scale where 0 is no effect and 100 is complete control
In short: as §2

morningglory = assay: Test C preemergence; format: in vivo, Ipomoea coccinea; conditions: for Morningglory plant response rating: preemergence; for Plant response rating, Morningglory: Preemergence, 31 g ai/ha, scale 0 to 100, 0 no effect, 100 complete control
In short: as §1

velvetleaf = assay: Test C preemergence; format: in vivo, Abutilon theophrasti; conditions: for Velvetleaf plant response rating: preemergence; for Plant response rating, Velvetleaf: Preemergence, 31 g ai/ha, scale 0 to 100, 0 no effect, 100 complete control
In short: as §1

pigweed = assay: Test C preemergence; format: in vivo, Amaranthus retroflexus; conditions: for Pigweed plant response rating: preemergence; for Plant response rating, Pigweed: Preemergence, 31 g ai/ha, scale 0 to 100, 0 no effect, 100 complete control
In short: as §1

johnsongrass = assay: Test C preemergence; format: in vivo, Sorghum halepense; conditions: for Johnsongrass plant response rating: preemergence; for Plant response rating, Johnsongrass: Preemergence, 31 g ai/ha, scale 0 to 100, 0 no effect, 100 complete control
In short: as §1

lambsquarters = assay: Test C preemergence; format: in vivo, Chenopodium album; conditions: for Lambsquarters plant response rating: preemergence; for Plant response rating, Lambsquarters: Preemergence, 31 g ai/ha, scale 0 to 100, 0 no effect, 100 complete control
In short: as §1

blackgrass [1] = assay: Test C preemergence; format: in vivo, Alopecurus myosuroides; conditions: for Blackgrass plant response rating: preemergence; for Plant response rating, Blackgrass: Preemergence, 31 g ai/ha, scale 0 to 100, 0 no effect, 100 complete control
In short: as §1

Italian ryegrass [2] = assay: Test A postemergence; format: in vivo, Lolium multiflorum; conditions: 0 to 100 scale where 0 is no effect and 100 is complete control
In short: as §2

galium = assay: Test A postemergence; format: in vivo, Galium aparine; conditions: 0 to 100 scale where 0 is no effect and 100 is complete control
In short: as §2

giant foxtail = assay: Test C preemergence; format: in vivo, Setaria faberii; conditions: for Foxtail, Giant plant response rating: preemergence; for Plant response rating, Foxtail, Giant: Preemergence, 31 g ai/ha, scale 0 to 100, 0 no effect, 100 complete control
In short: as §1

yellow nutsedge = assay: Test C preemergence; format: in vivo, Cyperus esculentus; conditions: for Nutsedge, Yellow plant response rating: preemergence; for Plant response rating, Nutsedge, Yellow: Preemergence, 31 g ai/ha, scale 0 to 100, 0 no effect, 100 complete control
In short: as §1

blackgrass [3] = assay: Test A postemergence; format: in vivo, Alopecurus myosuroides
In short: as §2

oilseed rape = assay: Test C preemergence; format: in vivo, Brassica napus; conditions: for Oilseed Rape plant response rating: preemergence; for Plant response rating, Oilseed Rape: Preemergence, 31 g ai/ha, scale 0 to 100, 0 no effect, 100 complete control
In short: as §1

waterhemp = assay: Test C preemergence; format: in vivo, Amaranthus rudis; conditions: for Waterhemp plant response rating: preemergence; for Plant response rating, Waterhemp: Preemergence, 31 g ai/ha, scale 0 to 100, 0 no effect, 100 complete control
In short: as §1

Italian ryegrass [4] = assay: Test C preemergence; format: in vivo, Lolium multiflorum; conditions: for Ryegrass, Italian plant response rating: preemergence; for Plant response rating, Ryegrass, Italian: Preemergence, 31 g ai/ha, scale 0 to 100, 0 no effect, 100 complete control
In short: as §1

[5] = 16 g ai/ha, scale 0 to 100 (0 no effect, 100 complete control)
[6] = 62 g ai/ha, scale 0 (no effect) to 100 (complete control)
[7] = 125 g ai/ha, scale 0 (no effect) to 100 (complete control)
[8] = 125 g ai/ha, 0 to 100 scale where 0 is no effect and 100 is complete control

CC(C)c1cnn(-c2c(C#N)cccc2Oc2ncc(Cl)cn2)c1 [Compound 85]
55: Johnsongrass plant response rating (johnsongrass; [6]) | Waterhemp plant response rating (waterhemp; [5])
95: Barnyardgrass plant response rating (barnyardgrass; [7])
0: Barnyardgrass plant response rating (barnyardgrass; [5]) | Soybean plant response rating (soybean; [5]) | Morningglory plant response rating (morningglory; [5]) | Morningglory plant response rating (morningglory; [6]) | Plant response rating, Morningglory (morningglory) | Blackgrass plant response rating (blackgrass [1]; [5]) | Nutsedge, Yellow plant response rating (yellow nutsedge; [5]) | Plant response rating, Nutsedge, Yellow (yellow nutsedge) | Oilseed Rape plant response rating (oilseed rape; [5]) | Ryegrass, Italian plant response rating (Italian ryegrass [4]; [5]) | Ryegrass, Italian plant response rating (Italian ryegrass [4]; [6]) | Plant response rating, Ryegrass, Italian (Italian ryegrass [4])
98: Oilseed Rape plant response rating (oilseed rape; [7])
80: Plant response rating, Velvetleaf (velvetleaf) | Plant response rating, Blackgrass (blackgrass [3]; 500 g ai/ha, 0 to 100 scale, 0 no effect, 100 complete control)
40: Soybean plant response rating (soybean; [6]) | Plant response rating, Pigweed (pigweed) | Plant response rating, Oilseed Rape (oilseed rape)
70: Plant response rating, Kochia (kochia; 125 g ai/ha) | Plant response rating, Blackgrass (blackgrass [3]; [8])
15: Plant response rating, Barnyardgrass (barnyardgrass) | Plant response rating, Soybean (soybean) | Johnsongrass plant response rating (johnsongrass; [5])
85: Johnsongrass plant response rating (johnsongrass; [7]) | Plant response rating, Waterhemp (waterhemp)
5: Plant response rating, Blackgrass (blackgrass [1]) | Nutsedge, Yellow plant response rating (yellow nutsedge; [6])
75: Barnyardgrass plant response rating (barnyardgrass; [6])
10: Blackgrass plant response rating (blackgrass [1]; [6])
20: Morningglory plant response rating (morningglory; [7]) | Plant response rating, Johnsongrass (johnsongrass) | Foxtail, Giant plant response rating (giant foxtail; [5]) | Nutsedge, Yellow plant response rating (yellow nutsedge; [7])
65: Crabgrass, Large plant response rating (large (Lg) crabgrass; [5]) | Lambsquarters plant response rating (lambsquarters; [5])
100: Crabgrass, Large plant response rating (large (Lg) crabgrass; [6]) | Crabgrass, Large plant response rating (large (Lg) crabgrass; [7]) | Plant response rating, Kochia (kochia; 500 g ai/ha) | Velvetleaf plant response rating (velvetleaf; [6]) | Velvetleaf plant response rating (velvetleaf; [7]) | Pigweed plant response rating (pigweed; [6]) | Pigweed plant response rating (pigweed; [7]) | Lambsquarters plant response rating (lambsquarters; [6]) | Lambsquarters plant response rating (lambsquarters; [7]) | Plant response rating, Lambsquarters (lambsquarters) | Plant response rating, Ryegrass, Italian (Italian ryegrass [2]; 500 g ai/ha) | Plant response rating, Galium (galium; 500 g ai/ha) | Foxtail, Giant plant response rating (giant foxtail; [7]) | Waterhemp plant response rating (waterhemp; [6]) | Waterhemp plant response rating (waterhemp; [7])
50: Plant response rating, Ragweed (ragweed; 125 g ai/ha) | Pigweed plant response rating (pigweed; [5]) | Ryegrass, Italian plant response rating (Italian ryegrass [4]; [7])
90: Plant response rating, Crabgrass, Large (large (Lg) crabgrass) | Blackgrass plant response rating (blackgrass [1]; [7]) | Plant response rating, Galium (galium; 125 g ai/ha) | Foxtail, Giant plant response rating (giant foxtail; [6]) | Oilseed Rape plant response rating (oilseed rape; [6])
35: Velvetleaf plant response rating (velvetleaf; [5]) | Plant response rating, Foxtail, Giant (giant foxtail)
60: Plant response rating, Ragweed (ragweed; 500 g ai/ha) | Soybean plant response rating (soybean; [7]) | Plant response rating, Ryegrass, Italian (Italian ryegrass [2]; 125 g ai/ha)

Cc1cnc(Oc2cccc(C#N)c2-n2cc(C#N)cn2)nc1 [Compound 90]
100: Crabgrass, Large plant response rating (large (Lg) crabgrass; [7]) | Plant response rating, Kochia (kochia; 500 g ai/ha) | Morningglory plant response rating (morningglory; [7]) | Velvetleaf plant response rating (velvetleaf; [7]) | Pigweed plant response rating (pigweed; [7]) | Lambsquarters plant response rating (lambsquarters; [5]) | Lambsquarters plant response rating (lambsquarters; [6]) | Lambsquarters plant response rating (lambsquarters; [7]) | Plant response rating, Galium (galium; 500 g ai/ha) | Foxtail, Giant plant response rating (giant foxtail; [7]) | Oilseed Rape plant response rating (oilseed rape; [7]) | Waterhemp plant response rating (waterhemp; [6]) | Waterhemp plant response rating (waterhemp; [7]) | Plant response rating, Waterhemp (waterhemp)
60: Plant response rating, Ragweed (ragweed; 125 g ai/ha) | Nutsedge, Yellow plant response rating (yellow nutsedge; [7]) | Oilseed Rape plant response rating (oilseed rape; [5])
20: Plant response rating, Morningglory (morningglory) | Johnsongrass plant response rating (johnsongrass; [6])
55: Morningglory plant response rating (morningglory; [6])
5: Plant response rating, Barnyardgrass (barnyardgrass) | Johnsongrass plant response rating (johnsongrass; [5]) | Blackgrass plant response rating (blackgrass [1]; [5]) | Plant response rating, Blackgrass (blackgrass [1]) | Foxtail, Giant plant response rating (giant foxtail; [5]) | Nutsedge, Yellow plant response rating (yellow nutsedge; [6])
90: Plant response rating, Kochia (kochia; 125 g ai/ha) | Plant response rating, Galium (galium; 125 g ai/ha)
75: Barnyardgrass plant response rating (barnyardgrass; [6]) | Foxtail, Giant plant response rating (giant foxtail; [6])
65: Soybean plant response rating (soybean; [6]) | Plant response rating, Velvetleaf (velvetleaf)
70: Plant response rating, Blackgrass (blackgrass [3]; 500 g ai/ha, 0 to 100 scale where 0 is no effect and 100 is complete control)
40: Pigweed plant response rating (pigweed; [5])
10: Plant response rating, Johnsongrass (johnsongrass)
35: Plant response rating, Soybean (soybean) | Velvetleaf plant response rating (velvetleaf; [5]) | Nutsedge, Yellow plant response rating (yellow nutsedge; [5])
50: Plant response rating, Blackgrass (blackgrass [3]; [8]) | Ryegrass, Italian plant response rating (Italian ryegrass [4]; [7])
98: Crabgrass, Large plant response rating (large (Lg) crabgrass; [6]) | Plant response rating, Crabgrass, Large (large (Lg) crabgrass) | Velvetleaf plant response rating (velvetleaf; [6]) | Pigweed plant response rating (pigweed; [6]) | Plant response rating, Lambsquarters (lambsquarters) | Oilseed Rape plant response rating (oilseed rape; [6])
25: Crabgrass, Large plant response rating (large (Lg) crabgrass; [5]) | Soybean plant response rating (soybean; [5])
95: Soybean plant response rating (soybean; [7])
30: Blackgrass plant response rating (blackgrass [1]; [6]) | Plant response rating, Ryegrass, Italian (Italian ryegrass [2]; 125 g ai/ha)
85: Barnyardgrass plant response rating (barnyardgrass; [7]) | Plant response rating, Pigweed (pigweed) | Blackgrass plant response rating (blackgrass [1]; [7]) | Waterhemp plant response rating (waterhemp; [5])
45: Plant response rating, Foxtail, Giant (giant foxtail)
80: Plant response rating, Ragweed (ragweed; 500 g ai/ha) | Johnsongrass plant response rating (johnsongrass; [7]) | Plant response rating, Ryegrass, Italian (Italian ryegrass [2]; 500 g ai/ha) | Plant response rating, Oilseed Rape (oilseed rape)
0: Barnyardgrass plant response rating (barnyardgrass; [5]) | Morningglory plant response rating (morningglory; [5]) | Plant response rating, Nutsedge, Yellow (yellow nutsedge) | Ryegrass, Italian plant response rating (Italian ryegrass [4]; [5]) | Ryegrass, Italian plant response rating (Italian ryegrass [4]; [6]) | Plant response rating, Ryegrass, Italian (Italian ryegrass [4])

Reference: US9695155B2, “Herbicidal substituted pyrimidinyloxy benzene compounds” (E. I. DU PONT DE NEMOURS AND COMPANY, priority 2013, dated 2017)
